Results as given in patent US20260209208A1, “PHENYL-PYRAZOLE CARBOXAMIDE COMPOUNDS” (Acrivon Therapeutics, Inc., priority 2022, published 2026).
One block for each molecule: values may come before it.

How the values were obtained:
[1] = test system: DAOY cells; assay: Cell Titer Glo viability assay; assay type: cell-based; conditions: Homo sapiens, 144 hours, Cell Titer Glo 2.0
Experimental: (§1) DAOY medulloblastoma cell line (ATCC) was cultured in Minimum Essential Medium Eagle supplemented with 10% fetal calf serum (Sigma), 1% Penicillin-Streptomycin and 10 mM HEPES buffer (HyClone). Cell cultures were kept in a humidified incubator at 37° C. and 5% CO2. Cells were routinely tested for Mycoplasma contamination.
DAOY cells were seeded at a density of 250 cells per well in tissue culture 384 well plates (Corning Costar). After overnight incubation, cells were incubated with test compounds at concentrations ranging from 0.17 to 10,000 nM. Viability compared to untreated control was assessed at 144 hours using Cell Titer Glo® 2.0 Viability Assay (Promega).

[2] = target: T1, recombinant human PMYT-1 (Myt1 kinase) (Homo sapiens, UniProt Q99640); assay: LanthaScreen Europium (Eu) Kinase Binding Assay for Myt1 kinase; conditions: TR-FRET tracer 178 displacement, GST-tagged full length PMYT-1, 60 min, room temperature; mean IC50; read-out: LANTHA Kinase Binding for PMyt1
T1 construct: full length PMYT-1 was expressed by baculovirus in insect cells using a N-terminal GST tag; purchased Invitrogen A30984; host or cells: insect cells (baculovirus)
T1 sequence (Q99640 1-499): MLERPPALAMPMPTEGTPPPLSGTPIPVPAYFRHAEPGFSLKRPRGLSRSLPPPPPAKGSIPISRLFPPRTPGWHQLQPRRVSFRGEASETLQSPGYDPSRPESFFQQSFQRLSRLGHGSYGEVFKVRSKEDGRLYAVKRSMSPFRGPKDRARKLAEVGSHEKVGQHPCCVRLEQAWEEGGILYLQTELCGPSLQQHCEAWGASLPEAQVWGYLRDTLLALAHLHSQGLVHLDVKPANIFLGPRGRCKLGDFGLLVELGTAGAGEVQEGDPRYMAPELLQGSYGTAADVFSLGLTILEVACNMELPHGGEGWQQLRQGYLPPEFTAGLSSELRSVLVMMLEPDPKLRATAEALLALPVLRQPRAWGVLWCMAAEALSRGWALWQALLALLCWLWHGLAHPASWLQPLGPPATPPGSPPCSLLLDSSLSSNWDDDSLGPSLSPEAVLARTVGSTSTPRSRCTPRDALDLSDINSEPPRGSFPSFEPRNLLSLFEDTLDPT
Excerpt: We used a LanthaScreen Europium (Eu) Kinase Binding Assay to determine the binding of provided compounds to Myt1 kinase. The assay utilizes an Alexa Fluor 647-labeled ATP competitive kinase tracer that binds to the ATP binding site of a GST-tagged Myt1 kinase, while a europium (Eu) labeled antibody binds to the GST tag. The proximity of fluorescently labeled kinase tracer and europium (Eu) donor fluorophore antibody leads to fluorescence resonance energy transfer (FRET) to the fluorescence label (acceptor) upon excitation of the Eu (donor). Displacement of tracer from the ATP-binding site by a test compound disturbs the proximity between both labels thus lowering the FRET.
This time resolved-FRET binding assay was performed in white 384-well low volume plates (Greiner, cat #784075), at room temperature in kinase buffer A (KBA; Invitrogen cat # PV3189), consisting of 50 mM HEPES-NaOH (pH 7.5), 0.01% Brij-35, 10 mM MgCl2, and 1 mM EGTA. 5 μl of compound (diluted in reaction buffer, to 1% DMSO) were added to various wells in the plate, followed by 5 μl each of recombinant human PMYT-1 (full length PMYT-1 was expressed by baculovirus in insect cells using a N-terminal GST tag (MW: 80.8 kDa) (Invitrogen cat #A30984) and LanthaScreen Eu-anti-GST antibody (Invitrogen, cat #PV5594). After this, 5 μl of kinase tracer 178 (Invitrogen, cat #PV5593) was added to the plate and the plate was incubated for 60 minutes at room temperature. The final assay conditions in each well were: 3 nM tracer 178, 2.5 nM PMYT-1 and 1 nM Eu-labeled antibody in total assay volume of 15 μl. An Envision 2104 (Perkin-Elmer) Plate Reader with the following time-resolve fluorescence setting was used for performing LanthaScreen kinase binding assay. • Excitation 320 nm (30 nm bandpass) • Kinase Tracer Emission 665 nm (10 nm bandpass) • LanthaScreen Eu-anti-Tag Antibody Emission 615 nm (10 nm bandpass) • Dichroic Mirror Instrument dependent • Delay Time 100 μs • Integration Time 200 μs
To calculate the emission ratio, the acceptor/tracer emission ([…]) was divided by the antibody/donor emission ([…]) and the average of duplicate measurement was used for calculations. Data plotting, analysis of binding, and curve fitting was done using Excel add-in XLfit version 5.5.0.5 (IDBS, Guildford, United Kingdom).

[3] = target: T2, Myt1 Kinase (Homo sapiens, UniProt Q99640); assay: AlphaLISA SureFire Ultra Human Phospho-CDK1 (Thr14) target engagement assay in DAOY cells; assay type: cell-based; conditions: 4 h incubation, Cdk1 phosphorylated on threonine 14, read-out: TE Myt1 Kinase (AlphaLISA)
T2 construct: endogenous in cells; host or cells: DAOY medulloblastoma cells (ATCC)
T2 sequence (Q99640 1-499): T1 sequence (Q99640 1-499)
Experimental: The following cellular assay was used to determine the extent to which the compounds disclosed herein inhibit phosphorylation of CDK1 at Thr 14.
as §1
For target engagement assessment, quantification of Cdk1 phosphorylated on threonine 14 was detected using the AlphaLISA® SureFire® Ultra™ Human Phospho-CDK1 (Thr14) assay (Perkin Elmer). DAOY cells were seeded into tissue culture 96-well plates (VWR) to a density of 10,000 cells per well. Twenty-four hours post-seeding cells were incubated for 4 h with test compounds at concentrations ranging from 7 to 5000 nM. Cells were washed with PBS and lysed in 50 μl AlphaLISA® lysis buffer before freezing at −80° C. Ten μl of the lysate was transferred to 384 well plates and incubated with AlphaLISA® donor and acceptor beads according to the manufacturer's instructions. Dose response curves and EC50 values were calculated and visualized using GraphPad Prism version 9.

SMILES: Cc1ccc(O)c(C)c1-n1nc(-c2ccc(C#N)o2)c(C(N)=O)c1N [Compound 101, 5-amino-3-(5-cyano-2-furyl)-1-(3-hydroxy-2,6-xylyl)-4-pyrazolecarboxamide]
EC50 [1]: > 1000 nM
IC50 [2]: 10 to 100 nM
EC50 [3]: ≤ 250 nM

SMILES: Cc1ccc(O)c(C)c1-n1nc(-c2ccccc2)c(C(N)=O)c1N [Compound 9, 5-amino-1-(3-hydroxy-2,6-dimethylphenyl)-3-phenyl-1H-pyrazole-4-carboxamide; trifluoroacetic acid]
EC50 [1]: > 1000 nM
IC50 [2]: 10 to 100 nM
EC50 [3]: ≤ 250 nM

SMILES: Cc1ccc(O)c(C)c1-n1nc(-c2cc3ccccc3o2)c(C(N)=O)c1N (single isomer, unassigned) [Compound 107, 5-amino-3-(benzofuran-2-yl)-1-(3-hydroxy-2,6-dimethylphenyl)-1H-pyrazole-4-carboxamide]
EC50 [1]: ≤ 500 nM
IC50 [2]: ≤ 10 nM
EC50 [3]: ≤ 250 nM

SMILES: Cc1ccc(O)c(C)c1-n1nc(-c2cccs2)c(C(N)=O)c1N [Compound 119]
EC50 [1]: 500 to 1000 nM
IC50 [2]: ≤ 10 nM
EC50 [3]: ≤ 250 nM

SMILES: CC(C)=Cc1coc(-c2nn(-c3c(C)ccc(O)c3C)c(N)c2C(N)=O)c1 [Compound 108, 5-amino-1-(3-hydroxy-2,6-xylyl)-3-[4-(2-methyl-1-propenyl)-2-furyl]-4-pyrazolecarboxamide]
EC50 [1]: 500 to 1000 nM
IC50 [2]: ≤ 10 nM
EC50 [3]: ≤ 250 nM

SMILES: Cc1ccc(O)c(C)c1-n1nc(-c2cc(C(C)C)co2)c(C(N)=O)c1N [Compound 102, 5-amino-1-(3-hydroxy-2,6-xylyl)-3-(4-isopropyl-2-furyl)-4-pyrazolecarboxamide]
EC50 [1]: ≤ 500 nM
IC50 [2]: ≤ 10 nM
EC50 [3]: ≤ 250 nM

SMILES: Cc1ccc(O)c(C)c1-n1nc(-c2cc(C#CC(C)(C)O)co2)c(C(N)=O)c1N [Compound 113, 5-amino-3-[4-(3-hydroxy-3-methyl-1-butynyl)-2-furyl]-1-(3-hydroxy-2,6-xylyl)-4-pyrazolecarboxamide]
EC50 [1]: > 1000 nM
IC50 [2]: 10 to 100 nM
EC50 [3]: 250 to 500 nM

SMILES: C=Cc1coc(-c2nn(-c3c(C)ccc(O)c3C)c(N)c2C(N)=O)c1 [Compound 96, 5-amino-1-(3-hydroxy-2,6-xylyl)-3-(4-vinyl-2-furyl)-4-pyrazolecarboxamide]
EC50 [1]: ≤ 500 nM
IC50 [2]: ≤ 10 nM
EC50 [3]: ≤ 250 nM

SMILES: Cc1ccc(O)c(C)c1-n1nc(-c2ccc(-c3cccnc3)o2)c(C(N)=O)c1N [Compound 86, 5-amino-1-(3-hydroxy-2,6-xylyl)-3-[5-(3-pyridyl)-2-furyl]-4-pyrazolecarboxamide]
EC50 [1]: 500 to 1000 nM
IC50 [2]: ≤ 10 nM
EC50 [3]: ≤ 250 nM

The next lines start with results.

IC50 [2]: ≤ 10 nM
EC50 [3]: ≤ 250 nM
SMILES: Cc1ccc(O)c(C)c1-n1nc(-c2cc(-c3ccccc3)co2)c(C(N)=O)c1N [Compound 88, 5-amino-1-(3-hydroxy-2,6-xylyl)-3-(4-phenyl-2-furyl)-4-pyrazolecarboxamide]
EC50 [1]: ≤ 500 nM

IC50 [2]: ≤ 10 nM
EC50 [3]: 500 to 1000 nM
SMILES: Cc1ccc(O)c(C)c1-n1nc(-c2coc3ccccc23)c(C(N)=O)c1N [Compound 82, 5-amino-3-(1-benzofuran-3-yl)-1-(3-hydroxy-2,6-xylyl)-4-pyrazolecarboxamide]
EC50 [1]: > 1000 nM

IC50 [2]: ≤ 10 nM
EC50 [3]: ≤ 250 nM
SMILES: Cc1ccc(O)c(C)c1-n1nc(-c2ccccn2)c(C(N)=O)c1N [Compound 35]
EC50 [1]: > 1000 nM

IC50 [2]: ≤ 10 nM
EC50 [3]: ≤ 250 nM
SMILES: Cc1ccc(O)c(C)c1-n1nc(-c2cc(-c3cccnc3)co2)c(C(N)=O)c1N [Compound 94, 5-amino-1-(3-hydroxy-2,6-xylyl)-3-[4-(3-pyridyl)-2-furyl]-4-pyrazolecarboxamide]
EC50 [1]: ≤ 500 nM

IC50 [2]: ≤ 10 nM
EC50 [3]: ≤ 250 nM
SMILES: Cc1ccc(-c2nn(-c3c(C)ccc(O)c3C)c(N)c2C(N)=O)o1 [Compound 81, 5-amino-1-(3-hydroxy-2,6-xylyl)-3-(5-methyl-2-furyl)-4-pyrazolecarboxamide]
EC50 [1]: 500 to 1000 nM

IC50 [2]: ≤ 10 nM
EC50 [3]: ≤ 250 nM
SMILES: C/C=C/c1coc(-c2nn(-c3c(C)ccc(O)c3C)c(N)c2C(N)=O)c1 [Compound 112, 3-{4-[(E)-1-propenyl]-2-furyl}-5-amino-1-(3-hydroxy-2,6-xylyl)-4-pyrazolecarboxamide]
EC50 [1]: 500 to 1000 nM

IC50 [2]: ≤ 10 nM
EC50 [3]: ≤ 250 nM
SMILES: Cc1ccc(O)c(C)c1-n1nc(-c2cc(-c3ccccn3)co2)c(C(N)=O)c1N [Compound 98, 5-amino-1-(3-hydroxy-2,6-xylyl)-3-[4-(2-pyridyl)-2-furyl]-4-pyrazolecarboxamide]
EC50 [1]: ≤ 500 nM

IC50 [2]: ≤ 10 nM
EC50 [3]: ≤ 250 nM
SMILES: CC#Cc1coc(-c2nn(-c3c(C)ccc(O)c3C)c(N)c2C(N)=O)c1 [Compound 114, 5-amino-1-(3-hydroxy-2,6-xylyl)-3-[4-(1-propynyl)-2-furyl]-4-pyrazolecarboxamide]
EC50 [1]: 500 to 1000 nM

IC50 [2]: ≤ 10 nM
EC50 [3]: ≤ 250 nM
SMILES: Cc1ccc(O)c(C)c1-n1nc(-c2ccc(Br)o2)c(C(N)=O)c1N [Compound 73, 5-amino-3-(5-bromo-2-furyl)-1-(3-hydroxy-2,6-xylyl)-4-pyrazolecarboxamide]
EC50 [1]: ≤ 500 nM

IC50 [2]: ≤ 10 nM
EC50 [3]: ≤ 250 nM
SMILES: C=C(C)c1coc(-c2nn(-c3c(C)ccc(O)c3C)c(N)c2C(N)=O)c1 [Compound 97, 5-amino-1-(3-hydroxy-2,6-xylyl)-3-(4-isopropenyl-2-furyl)-4-pyrazolecarboxamide]
EC50 [1]: ≤ 500 nM

IC50 [2]: ≤ 10 nM
EC50 [3]: ≤ 250 nM
SMILES: COc1ccc2oc(-c3nn(-c4c(C)ccc(O)c4C)c(N)c3C(N)=O)cc2c1 [Compound 115, 5-amino-1-(3-hydroxy-2,6-dimethylphenyl)-3-(5-methoxybenzofuran-2-yl)-1H-pyrazole-4-carboxamide]
EC50 [1]: 500 to 1000 nM

IC50 [2]: ≤ 10 nM
EC50 [3]: ≤ 250 nM
SMILES: Cc1ccc(O)c(C)c1-n1nc(-c2cc(Br)co2)c(C(N)=O)c1N (single isomer, unassigned) [Compound 106, 5-amino-3-(4-bromofuran-2-yl)-1-(3-hydroxy-2,6-dimethylphenyl)-1H-pyrazole-4-carboxamide]
EC50 [1]: ≤ 500 nM
